# “And” between values parts separate entries of the source, which are not always exact repeats. Equal values may be shown once.
# What was measured:
# [1] = test system: WT sRANKL or Q238A sRANKL induced osteoclast formation; assay: Rescue experiment: osteoclast formation induced by WT or Q238A sRANKL; assay type: cell-based, mouse
# Experimental: For the osteoclast formation induced by WT and Q238A sRANKL experiments, BMMs were seeded in 96-well plate in density of 6 × 10^3 cell/ well with α-MEM completed medium containing 10 ng/mL M-CSF for 24 h. Then the cells were treated with 0 μM, 0.3 μM, 3 μM and 10 μM and stimulated with 100 ng/mLWT sRANKL or Q238A sRANKL respectively. For the osteoclast formation induced by WT, W194A, and H226A sRANKL experiments, cells were stimulated with 100 ng/mL WT sRANKL combined W194A, H226A sRANKL in different concentrations (50 ng/mL, 200 ng/mL, and 400 ng/mL) with or without 10 μM S3-15. After 5 days, osteoclasts were formed, and applied TRAP-staining as described above. TRAP-positive multinucleated cells with > 3 nuclei were scored as osteoclasts.
# [2] = test system: mRANKL induced osteoclastogenesis; assay: mRANKL induced osteoclastogenesis assay; assay type: cell-based, mouse; conditions: for OC inhibitory ratio, mRANKL induced (fig. 3d IC50 curve data): replicates
# OVX mice [3] = assay: Three-point bending test of femur (biomechanical strength); assay type: in vivo, mouse; conditions: OVX mice + S3-15, individual animals
# Experimental: The weight of rats or mice were recorded every week in the treatment period. After treatment, the rats were harvested, the serum, heart, liver, spleen, lung, kidney, thymus, and femurs were all collected and subjected to subsequent analysis. The right femurs of rats or mice were cleaned excess soft tissue, fixed in 10% formalin, and processed them for microcomputed tomography (micro-CT) analysis. Left mice femurs were collected and excarnate for biomechanical strength testing. Mice peripheral blood were as well as collected for flow cytometry analyzing.
# OVX rats = assay: Serum biochemical markers determination; assay type: in vivo, rat; parameters: TG / ALT / AST / ALP / GLU / TC / Ca / TBA / TBIL / BUN / CREA: unit not given here
# Source text: After treating with S3-15 for 12 weeks, rat serum was harvested and analyzed routine blood biochemical markers, including calcium (Ca), phosphorus (P), total cholesterol (TC), triglyceride (TG), glucose (Glu), aspartate aminotransferase (AST), alanine aminotransferase (ALT), alkaline phosphatase (ALP), total bile acid (TBIL), total bilirubin (TBA), creatinine (CREA), urea nitrogen (BUN). Ca, P, AST, ALT, ALP, CREA, and BUN were purchased from Wako Pure Chemical, Japan; Glu,TC, TG, TBIL, and TBA were purchased from Kehua Bio-engineering Co.LTD, China. Routine blood biochemical markers were examined with a Hitachi chemistry automated analyzer (Hitachi 7020, Japan) according to manufacturer’s instruction.
# OVX mice [4] = assay: Mice peripheral blood T lymphocyte subsets analysis; assay type: in vivo, mouse; conditions: OVX mice + S3-15 4 weeks, individual animals
# Source text: In order to study the effect of S3-15 on the immune system, after 4 weeks of S3-15 treatment, orbital venous blood with EDTA-anticoagulated was collected for T lymphocyte subsets analysis in osteoporosis mice. We used flow cytometric to determinate T lymphocyte subsets according to the guidelines for Flow Cytometric of Beckman Coulter, FC500. Cells were stained according to manufacturer’s instruction of PE-Cyanine7 anti-Human CD8a and PE anti-Human CD4 antibodies (Tonbo Biosciences). Data analyzing was performed by using CXP software (Beckman Coulter, Supplementary Fig. 9).
# OVX mice [5] = assay: Splenic lymphocyte transformation test; assay type: in vivo, mouse; parameters: key: OD (MTT) of stimulated minus unstimulated cells; conditions: OVX mice + S3-15 4 weeks, individual animals
# Experimental: Spleens were aseptically isolated from sham group, OVX group and OVX treatment group after treating S3-15 for 4 weeks in a clean bench (II Class biosafety Cabinets, Escolifesciences, Singapore). Splenic single cell suspensions were obtained by gentle squeezing spleen tissue by injecting 2 mL cold Hank’s solution. Splenic cells were filtered through 40 μm nylon filters (BD Biosciences, Darmstadt, Germany), and centrifuged at 1400 × g for 10 min. Then cells were resuspended in 1640 completed medium (containing 10%FBS, 1% penicillin/streptomycin, 1% glutamine (200 mmol/L) and 5 × 10^−5 mol/L 2-mercaptoethanol) with a concentration of 5 × 10^6 cells/mL and seeded 100 μL into 96-well plates. Two wells for each mouse, and one well stimulated with 50 μL […] (Sigma-Aldrich®, Germany) solution (working concentration 7.5 μg/mL in 1640 completed medium), another well added 50 μL 1640 complete medium as a control. After that, the plates were incubated at 37 °C in a CO2 incubator at 5% CO2 for 72 h. After stimulation, cells were measured by MTT method. Stimulation of cell proliferation ability was determined as the absorbance (OD) value of stimulated minus unstimulated cells for each cell sample.
# OVX mice [6] = assay: Histological examination of femur (TRAP staining); assay type: in vivo, mouse
# Experimental: The mice left femur was fixed in paraformaldehyde for 72 h, demineralized using 10% Ethylenediamine tetra-acetic acid (EDTA-2Na) for 3 weeks, and then dehydrated with ethanol, clarified with xylene, and embedded with paraffin. Paraffin embedded tissue was sectioned on a rotary microtome. The sectioned tissues were stained with TRAP.
# [7] = serum, OVX rats, individual animals
structure (smiles),measurement,setting,value
CC(=O)/C(=N\Nc1ccccc1C(=O)O)C(=O)Nc1ccccn1 [S3-15],osteoclastogenesis when incubated with Q238A sRANKL,[1]; Q238A sRANKL,cannot block osteoclastogenesis
same,Number of OCs,"[1]; Q238A sRANKL 100 ng/mL, S3-15 0.3 μM",268 and 278 and 265
same,Number of OCs,"[1]; Q238A sRANKL 100 ng/mL, S3-15 3 μM",250 and 279 and 269
same,Number of OCs,"[1]; Q238A sRANKL 100 ng/mL, S3-15 10 μM",265 and 279 and 270
same,Number of OCs,"[1]; WT RANKL 100 ng/mL, S3-15 0.3 μM",142 and 135 and 149
same,Number of OCs,"[1]; WT RANKL 100 ng/mL, S3-15 3 μM",35 and 57 and 40
same,"OC inhibitory ratio, mRANKL induced (fig. 3d IC50 curve data)",[2]; 0.0023464 μM,-1.8319 and -1.185 and 3.987
same,"OC inhibitory ratio, mRANKL induced (fig. 3d IC50 curve data)",[2]; 0.00774313 μM,-0.2155 and 3.341 and 0.431
same,"OC inhibitory ratio, mRANKL induced (fig. 3d IC50 curve data)",[2]; 0.0255523 μM,1.724 and 9.483 and -1.8319
same,"OC inhibitory ratio, mRANKL induced (fig. 3d IC50 curve data)",[2]; 0.0843226 μM,10.4526 and 18.2112 and 10.1293
same,"OC inhibitory ratio, mRANKL induced (fig. 3d IC50 curve data)",[2]; 0.278265 μM,19.8276 and 9.806 and 12.7155
same,"OC inhibitory ratio, mRANKL induced (fig. 3d IC50 curve data)",[2]; 0.918274 μM,19.8276 and 9.806 and 12.7155
same,"OC inhibitory ratio, mRANKL induced (fig. 3d IC50 curve data)",[2]; 3.0303 μM,46.6595 (2×) and 50.5388
same,"OC inhibitory ratio, mRANKL induced (fig. 3d IC50 curve data)",[2]; 10 μM,62.8233 (2×) and 61.5302
same,"OC inhibitory ratio, mRANKL induced (fig. 3d IC50 curve data)",[2]; 33 μM,90.3017 and 88.3621 and 89.6552
same,IC50,"[2]; Mus musculus, +mRANKL",4.14 µM
same,Femur ultimate load,OVX mice [3],16.2764 N and 16.6572 N and 19.3534 N and 19.5584 N and 18.4846 N and 18.452 N and 16.2074 N and 13.318 N
same,organ toxicity / routine blood examination,"OVX rats; rats, 12 weeks treatment",no organ toxicity in vivo
same,ALP,OVX rats; [7],35 and 77 and 34 and 39 and 60 and 23 and 42 and 48 and 49
same,ALT,OVX rats; [7],29 and 34 and 37 and 33 and 38 and 25 and 28 and 32 and 39
same,AST,OVX rats; [7],82 and 90 and 88 and 109 and 96 and 114 and 85 and 87 and 95
same,BUN,OVX rats; [7],5.99 and 5.28 and 6.41 and 6.31 and 5.6 and 5.72 and 5.71 and 5.18 and 6
same,CREA,OVX rats; [7],58.7 and 57.9 and 57 and 66.1 and 49.8 and 56.6 and 56.8 and 65.7 and 60.7
same,Ca,OVX rats; [7],2.46 and 2.39 and 2.41 and 2.43 and 2.15 and 2.33 and 2.34
same,GLU,OVX rats; [7],10.2096 and 9.028 and 12.7431 and 8.981 and 13.9764 and 7.763 and 10.2611 and 9.122 and 11.2914
same,TBA,OVX rats; [7],26.48 and 20.71 and 36.69 and 15.65 and 15.57 and 21.76 and 21.4 and 18.86 and 18.33
same,TBIL,OVX rats; [7],1.84 and 1.07 and 1.06 and 1.28 and 0.95 and 0.98 and 0.77 and 0.97 and 0.78
same,TC,OVX rats; [7],2.99 and 2.55 and 2.35 and 2.13 and 2.5 and 2.24 and 2.36 and 2.45
same,TG,OVX rats; [7],1.05 and 0.75 and 0.49 and 0.31 and 0.47 and 0.65 and 0.46 and 0.64
same,"CD3+, % in peripheral lymphocyte",OVX mice [4],36.27% and 37.35% and 37.5% and 36.96% and 36.85% and 38.5% and 35.97% and 34.6%
same,"CD3+CD4+, % in CD3+ T cell",OVX mice [4],61.95% and 60.18% and 56.07% and 64.9% and 64.44% and 61.9% and 58.71% and 64.19%
same,"CD3+CD4+, % in peripheral lymphocyte",OVX mice [4],22.2% and 22.32% and 20.69% and 23.69% and 23.71% and 23.61% and 23.29% and 21.4%
same,"CD3+CD8+, % in CD3+ T cell",OVX mice [4],30.94% and 33.61% and 35.99% and 30.67% and 29.41% and 32.61% and 35.04% and 29.24%
same,"CD3+CD8+, % in peripheral lymphocyte",OVX mice [4],11.41% and 12.7% and 13.52% and 11.4% and 10.94% and 12.69% and 10.21% and 10.64%
same,"CD4+, % in peripheral lymphocyte",OVX mice [4],22.3% and 22.29% and 20.64% and 23.66% and 23.37% and 23.65% and 23.23% and 21.42%
same,"CD8+, % in peripheral lymphocyte",OVX mice [4],11.28% and 12.51% and 13.34% and 11.29% and 10.72% and 12.52% and 9.72% and 10.53%
same,CD4+/CD8+ in CD3+ T cell,OVX mice [4]; ratio,2.002 and 1.791 and 1.558 and 2.116 and 2.191 and 1.898 and 1.676 and 2.195
same,CD4+/CD8+ in peripheral lymphocyte,OVX mice [4]; ratio,1.946 and 1.757 and 1.53 and 2.078 (2×) and 2.167 and 1.861 and 2.011
same,Spleen lymphocyte transforming index,OVX mice [5],0.337 and 0.404 and 0.3367 and 0.4323 and 0.2993 and 0.3783 and 0.2337 and 0.316
same,"numbers of osteoclast, histology",OVX mice [6],significantly decreased the numbers of osteoclast

# From paper PMC9468151, “Identification of a binding site on soluble RANKL that can be targeted to inhibit soluble RANK-RANKL interactions and treat osteoporosis” (Nature Communications, 2022)
